In patent publication US6861409B2, “Growth hormone secretagogues” (Zentaris AG, priority 2000, dated 2005):

Assays:
Concentration GH = test: Time dependence of the oral activity in the dog (plasma GH); format: in vivo, dog (beagles); parameters: AUC (Area under the curve) of GH concentration: unit not given here; conditions: 1 mg/kg per os
Method: Furthermore the time dependence of the oral activity in the dog (1 mg/kg; per os) was estimated for example 1 (H-Aib-D-Trp-D-gTrp-CHO). Well-trained beagles of either sex, >10 year, 10-15 kg by weight, were used. Animals were fed normal dry food with water ad libitum and were on a 12 h-light/12 h-dark regimen with on at 7.00. The compound was administered orally to the dogs which had fasted since 16.00 of the preceding day. Blood samples were taken 20 min before administration, at administration and 15, 30, 60, 90, 120 and 180 min after administration.

plasma GH concentrations = test: Growth hormone releasing activity in the infant rat (plasma GH by RIA); format: in vivo, Sprague Dawley rats; conditions: Table 1 test series; male 10-day-old rats; 300 μg/kg subcutaneously; plasma 15 min later
Method: Male 10-day-old Sprague Dawley rats, about 25 g body weight were used.
One hour before the experiments, pups were separated from their respective dams and were divided randomly into groups of eight each.
Pups were acutely challenged subcutaneously with 100 μl of solvent (DMSO, final dilution 1:300 in physiological saline), hexarelin (Tyr-Ala-His-D-Mrp-Ala-Trp-D-Phe-Lys-NH2, used as a reference drug), or new compounds (300 μg/kg) and killed by decapitation 15 min later.
Trunk blood was collected and centrifuged immediately. Plasma samples were stored at −20° C. until assayed for the determination of plasma GH concentrations.
Growth hormone concentrations in plasma were measured by RIA using materials provided by the National Institute of Diabetes, Digestive and Kidney Diseases (NIDDK) of the National Institute of Health U.S.A.
Values were expressed in terms of the NIDDK-rat-GH-RP-2 standard (potency 21 U/mg) as ng/ml of plasma.
The minimum detectable value of rat GH was about 1.0 ng/ml, and intraassay variability was about 6%.

SMILES: CC(C)(N)C(=O)N[C@H](Cc1c[nH]c2ccccc12)C(=O)N[C@H](Cc1c[nH]c2ccccc12)NC=O [Example 1, H-Aib-D-Trp-D-gTrp-CHO]
- AUC (Area under the curve) of GH concentration (Concentration GH; MEAN VALUE of 6 dogs): 675.35
- Concentration GH (Concentration GH; MEAN VALUE of 6 dogs, t 0 min (at administration)): 1.79 ng/mL
- Concentration GH (Concentration GH; MEAN VALUE of 6 dogs, t 15 min after administration): 5.32 ng/mL
- Concentration GH (Concentration GH; MEAN VALUE of 6 dogs, t 30 min after administration): 5.5 ng/mL
- Concentration GH (Concentration GH; MEAN VALUE of 6 dogs, t 60 min after administration): 3.52 ng/mL
- Concentration GH (Concentration GH; MEAN VALUE of 6 dogs, t 90 min after administration): 3.59 ng/mL
- Concentration GH (Concentration GH; MEAN VALUE of 6 dogs, t 120 min after administration): 3.42 ng/mL
- Concentration GH (Concentration GH; MEAN VALUE of 6 dogs, t 180 min after administration): 3.04 ng/mL
- Concentration GH (Concentration GH; MEAN VALUE of 6 dogs, t −20 min (before administration)): 2.07 ng/mL
- AUC (Area under the curve) of GH concentration (Concentration GH; dog DAKOTA): 328.53
- Concentration GH (Concentration GH; dog DAKOTA, t 0 min (at administration)): 0.35 ng/mL
- Concentration GH (Concentration GH; dog DAKOTA, t 15 min after administration): 2.11 ng/mL
- Concentration GH (Concentration GH; dog DAKOTA, t 30 min after administration): 0.54 ng/mL
- Concentration GH (Concentration GH; dog DAKOTA, t 60 min after administration): 0.17 ng/mL
- Concentration GH (Concentration GH; dog DAKOTA, t 90 min after administration): 0.4 ng/mL
- Concentration GH (Concentration GH; dog DAKOTA, t 120 min after administration): 3.58 ng/mL
- Concentration GH (Concentration GH; dog DAKOTA, t 180 min after administration): 3.46 ng/mL
- Concentration GH (Concentration GH; dog DAKOTA, t −20 min (before administration)): 0.48 ng/mL
- AUC (Area under the curve) of GH concentration (Concentration GH; dog FORREST LEE): 888.91
- Concentration GH (Concentration GH; dog FORREST LEE, t 0 min (at administration)): 2.01 ng/mL
- Concentration GH (Concentration GH; dog FORREST LEE, t 15 min after administration): 6.38 ng/mL
- Concentration GH (Concentration GH; dog FORREST LEE, t 30 min after administration): 8.48 ng/mL
- Concentration GH (Concentration GH; dog FORREST LEE, t 60 min after administration): 4.41 ng/mL
- Concentration GH (Concentration GH; dog FORREST LEE, t 90 min after administration): 6.42 ng/mL
- Concentration GH (Concentration GH; dog FORREST LEE, t 120 min after administration): 3.71 ng/mL
- Concentration GH (Concentration GH; dog FORREST LEE, t 180 min after administration): 3.18 ng/mL
- Concentration GH (Concentration GH; dog FORREST LEE, t −20 min (before administration)): 1.43 ng/mL
- AUC (Area under the curve) of GH concentration (Concentration GH; dog JORMA): 658.38
- Concentration GH (Concentration GH; dog JORMA, t 0 min (at administration)): 2.75 ng/mL
- Concentration GH (Concentration GH; dog JORMA, t 15 min after administration): 8.91 ng/mL
- Concentration GH (Concentration GH; dog JORMA, t 30 min after administration): 6.85 ng/mL
- Concentration GH (Concentration GH; dog JORMA, t 60 min after administration): 2.65 ng/mL
- Concentration GH (Concentration GH; dog JORMA, t 90 min after administration): 2.47 ng/mL
- Concentration GH (Concentration GH; dog JORMA, t 120 min after administration): 2.48 ng/mL
- Concentration GH (Concentration GH; dog JORMA, t 180 min after administration): 2.82 ng/mL
- Concentration GH (Concentration GH; dog JORMA, t −20 min (before administration)): 3.58 ng/mL
- AUC (Area under the curve) of GH concentration (Concentration GH; dog MARKUS): 944.26
- Concentration GH (Concentration GH; dog MARKUS, t 0 min (at administration)): 2.55 ng/mL
- Concentration GH (Concentration GH; dog MARKUS, t 15 min after administration): 6.11 ng/mL
- Concentration GH (Concentration GH; dog MARKUS, t 30 min after administration): 6.9 ng/mL
- Concentration GH (Concentration GH; dog MARKUS, t 60 min after administration): 6.51 ng/mL
- Concentration GH (Concentration GH; dog MARKUS, t 90 min after administration): 5.18 ng/mL
- Concentration GH (Concentration GH; dog MARKUS, t 120 min after administration): 4.54 ng/mL
- Concentration GH (Concentration GH; dog MARKUS, t 180 min after administration): 4.12 ng/mL
- Concentration GH (Concentration GH; dog MARKUS, t −20 min (before administration)): 2.45 ng/mL
- AUC (Area under the curve) of GH concentration (Concentration GH; dog RAZ DEGAN): 510.64
- Concentration GH (Concentration GH; dog RAZ DEGAN, t 0 min (at administration)): 1.64 ng/mL
- Concentration GH (Concentration GH; dog RAZ DEGAN, t 15 min after administration): 3.58 ng/mL
- Concentration GH (Concentration GH; dog RAZ DEGAN, t 30 min after administration): 6.37 ng/mL
- Concentration GH (Concentration GH; dog RAZ DEGAN, t 60 min after administration): 3.02 ng/mL
- Concentration GH (Concentration GH; dog RAZ DEGAN, t 90 min after administration): 2.61 ng/mL
- Concentration GH (Concentration GH; dog RAZ DEGAN, t 120 min after administration): 1.94 ng/mL
- Concentration GH (Concentration GH; dog RAZ DEGAN, t 180 min after administration): 1.49 ng/mL
- Concentration GH (Concentration GH; dog RAZ DEGAN, t −20 min (before administration)): 2.14 ng/mL
- AUC (Area under the curve) of GH concentration (Concentration GH; dog TAYLOR): 721.34
- Concentration GH (Concentration GH; dog TAYLOR, t 0 min (at administration)): 1.41 ng/mL
- Concentration GH (Concentration GH; dog TAYLOR, t 15 min after administration): 4.8 ng/mL
- Concentration GH (Concentration GH; dog TAYLOR, t 30 min after administration): 3.89 ng/mL
- Concentration GH (Concentration GH; dog TAYLOR, t 60 min after administration): 4.34 ng/mL
- Concentration GH (Concentration GH; dog TAYLOR, t 90 min after administration): 4.43 ng/mL
- Concentration GH (Concentration GH; dog TAYLOR, t 120 min after administration): 4.28 ng/mL
- Concentration GH (Concentration GH; dog TAYLOR, t 180 min after administration): 3.18 ng/mL
- Concentration GH (Concentration GH; dog TAYLOR, t −20 min (before administration)): 2.32 ng/mL
- GH (plasma GH concentrations): 158.8 ± 39.4 ng/mL
